Test results reported in the supplement of paper PMC12463676, “Small-molecule dissolution of stress granules by redox modulation benefits ALS models” (Nature Chemical Biology, 2025).

Key:
lipoamide = compound: NC(=O)CCCCC1CCSS1 [lipoamide]; assay: thermal stability z-score vs DMSO; higher = more thermally stabilized by treatment; conditions: HeLa, lipoamide concentration 100 µM
Experimental: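 Cellular thermal proteome profiling in HeLa cells. Cells were treated with 100 µM lipoamide for 1 h, with or without 1 mM arsenate for a further 1 h, then heated to ten temperatures (37-66.3 °C), and soluble protein was quantified by TMT mass spectrometry relative to 0.1% DMSO controls. The thermal stability score (sum of log2 fold changes minus the abundance score) was transformed to a z-score; mean of n = 3 experiments.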

potassium arsenate = compound: O=[As]([O-])(O)O.[K+] [potassium arsenate]; assay: as above; conditions: HeLa; arsenate concentration 1 mM
Experimental: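 Cellular thermal proteome profiling in HeLa cells treated with 1 mM arsenate for 1 h (DMSO pretreatment), heated to ten temperatures (37-66.3 °C). Soluble protein was quantified by TMT mass spectrometry relative to DMSO controls; the thermal stability score was transformed to a z-score; mean of n = 3 experiments.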

[1] = arsenate co-treatment: 1 mM arsenate 1 h
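Also: each temperature applied for 3 min, abundance score taken as mean log2 fold change at the two lowest temperatures, z-score obtained by mean subtraction and division by SD.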

Target: RASA2 (UniProt Q15283)
- thermal stability z-score (lipoamide; [1]): -0.0591
- thermal stability z-score (lipoamide; arsenate co-treatment: none): -0.273
- thermal stability z-score (potassium arsenate): -0.334

Target: RASA3 (UniProt Q14644)
- thermal stability z-score (lipoamide; [1]): 0.0194
- thermal stability z-score (lipoamide; arsenate co-treatment: none): 0.0519
- thermal stability z-score (potassium arsenate): 0.0995

Target: RASAL2 (UniProt Q9UJF2)
- thermal stability z-score (lipoamide; [1]): -0.126
- thermal stability z-score (lipoamide; arsenate co-treatment: none): 0.0905
- thermal stability z-score (potassium arsenate): -0.227

Target: RASSF1 (UniProt Q9NS23)
- thermal stability z-score (lipoamide; [1]): -0.0475
- thermal stability z-score (lipoamide; arsenate co-treatment: none): 0.04
- thermal stability z-score (potassium arsenate): -0.089

Target: RASSF5 (UniProt Q8WWW0)
UniProt Q8WWW0, sequence (Q8WWW0 whole entry): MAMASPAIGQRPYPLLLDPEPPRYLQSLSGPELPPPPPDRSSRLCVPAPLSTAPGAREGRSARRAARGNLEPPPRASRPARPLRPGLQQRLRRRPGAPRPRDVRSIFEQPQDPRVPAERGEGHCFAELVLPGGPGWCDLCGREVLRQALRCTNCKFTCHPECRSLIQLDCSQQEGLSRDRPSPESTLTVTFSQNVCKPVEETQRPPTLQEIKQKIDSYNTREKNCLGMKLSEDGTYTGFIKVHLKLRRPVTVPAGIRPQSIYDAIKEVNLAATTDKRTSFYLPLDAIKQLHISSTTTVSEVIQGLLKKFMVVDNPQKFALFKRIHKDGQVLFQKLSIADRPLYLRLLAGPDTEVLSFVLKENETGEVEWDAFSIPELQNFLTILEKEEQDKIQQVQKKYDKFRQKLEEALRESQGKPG
- thermal stability z-score (lipoamide; [1]): -0.444
- thermal stability z-score (lipoamide; arsenate co-treatment: none): -0.459
- thermal stability z-score (potassium arsenate): 0.498

Target: RASSF8 (UniProt Q8NHQ8)
UniProt Q8NHQ8, sequence (Q8NHQ8 whole entry): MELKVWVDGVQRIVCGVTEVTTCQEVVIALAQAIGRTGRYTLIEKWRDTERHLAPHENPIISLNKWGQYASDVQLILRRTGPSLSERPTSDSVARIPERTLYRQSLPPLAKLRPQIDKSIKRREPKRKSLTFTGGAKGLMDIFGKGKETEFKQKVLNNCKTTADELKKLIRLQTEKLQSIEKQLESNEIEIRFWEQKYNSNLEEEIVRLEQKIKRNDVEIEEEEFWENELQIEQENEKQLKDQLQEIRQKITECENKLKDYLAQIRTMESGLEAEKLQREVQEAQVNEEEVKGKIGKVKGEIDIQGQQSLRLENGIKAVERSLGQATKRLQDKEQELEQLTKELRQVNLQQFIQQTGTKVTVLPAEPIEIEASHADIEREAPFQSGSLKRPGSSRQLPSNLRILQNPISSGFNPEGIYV
- thermal stability z-score (lipoamide; [1]): -0.0675
- thermal stability z-score (lipoamide; arsenate co-treatment: none): -0.05
- thermal stability z-score (potassium arsenate): -0.0803

Target: RAVER1 (UniProt Q8IY67)
- thermal stability z-score (lipoamide; [1]): -0.141
- thermal stability z-score (lipoamide; arsenate co-treatment: none): -0.0728
- thermal stability z-score (potassium arsenate): -0.162

Target: RAVER2 (UniProt Q9HCJ3)
UniProt Q9HCJ3, sequence (Q9HCJ3 whole entry): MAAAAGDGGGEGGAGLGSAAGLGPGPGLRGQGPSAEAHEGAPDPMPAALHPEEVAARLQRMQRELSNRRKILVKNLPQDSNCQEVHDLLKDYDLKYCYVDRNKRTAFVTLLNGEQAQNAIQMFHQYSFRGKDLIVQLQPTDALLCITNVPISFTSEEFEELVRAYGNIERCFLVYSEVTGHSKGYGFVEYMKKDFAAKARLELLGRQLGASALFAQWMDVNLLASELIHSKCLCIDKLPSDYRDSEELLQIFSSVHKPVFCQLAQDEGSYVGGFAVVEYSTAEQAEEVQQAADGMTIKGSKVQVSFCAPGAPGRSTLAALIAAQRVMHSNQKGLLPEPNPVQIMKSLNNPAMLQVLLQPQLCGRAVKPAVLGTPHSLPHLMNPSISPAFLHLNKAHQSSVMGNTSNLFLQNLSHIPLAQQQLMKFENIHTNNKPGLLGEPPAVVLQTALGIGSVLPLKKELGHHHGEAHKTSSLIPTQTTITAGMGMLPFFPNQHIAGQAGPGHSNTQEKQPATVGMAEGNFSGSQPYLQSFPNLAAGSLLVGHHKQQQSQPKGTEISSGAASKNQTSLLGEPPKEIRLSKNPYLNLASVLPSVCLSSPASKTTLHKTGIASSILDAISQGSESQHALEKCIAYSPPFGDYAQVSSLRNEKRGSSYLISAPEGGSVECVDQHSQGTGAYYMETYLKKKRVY
- thermal stability z-score (lipoamide; [1]): 0.204
- thermal stability z-score (lipoamide; arsenate co-treatment: none): 0.253
- thermal stability z-score (potassium arsenate): -0.0887

Target: RB1 (UniProt P06400)
- thermal stability z-score (lipoamide; [1]): 0.306
- thermal stability z-score (lipoamide; arsenate co-treatment: none): 0.229
- thermal stability z-score (potassium arsenate): -0.64

Target: RB1CC1 (UniProt Q8TDY2)
- thermal stability z-score (lipoamide; [1]): -0.502
- thermal stability z-score (lipoamide; arsenate co-treatment: none): -0.143
- thermal stability z-score (potassium arsenate): 0.893

Target: RBBP4 (UniProt Q09028)
UniProt Q09028, sequence (Q09028 whole entry): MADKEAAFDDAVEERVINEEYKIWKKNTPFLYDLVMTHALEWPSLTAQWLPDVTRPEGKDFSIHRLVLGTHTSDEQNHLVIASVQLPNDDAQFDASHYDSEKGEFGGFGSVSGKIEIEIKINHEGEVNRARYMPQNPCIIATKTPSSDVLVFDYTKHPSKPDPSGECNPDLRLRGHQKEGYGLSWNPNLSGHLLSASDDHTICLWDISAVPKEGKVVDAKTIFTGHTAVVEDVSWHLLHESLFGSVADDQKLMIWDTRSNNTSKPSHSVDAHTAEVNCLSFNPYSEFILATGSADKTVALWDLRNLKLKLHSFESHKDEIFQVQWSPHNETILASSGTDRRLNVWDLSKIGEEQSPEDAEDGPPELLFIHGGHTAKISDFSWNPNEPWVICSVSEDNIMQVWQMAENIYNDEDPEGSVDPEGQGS
- thermal stability z-score (lipoamide; [1]): 0.868
- thermal stability z-score (lipoamide; arsenate co-treatment: none): 0.934
- thermal stability z-score (potassium arsenate): -0.0159

Target: RBBP5 (UniProt Q15291)
- thermal stability z-score (lipoamide; [1]): 1.23
- thermal stability z-score (lipoamide; arsenate co-treatment: none): 0.518
- thermal stability z-score (potassium arsenate): -0.769

Target: RBBP6 (UniProt Q7Z6E9)
- thermal stability z-score (lipoamide; [1]): 0.06
- thermal stability z-score (lipoamide; arsenate co-treatment: none): -0.0854
- thermal stability z-score (potassium arsenate): -0.263

Target: RBBP7 (UniProt Q16576)
UniProt Q16576, sequence (Q16576 whole entry): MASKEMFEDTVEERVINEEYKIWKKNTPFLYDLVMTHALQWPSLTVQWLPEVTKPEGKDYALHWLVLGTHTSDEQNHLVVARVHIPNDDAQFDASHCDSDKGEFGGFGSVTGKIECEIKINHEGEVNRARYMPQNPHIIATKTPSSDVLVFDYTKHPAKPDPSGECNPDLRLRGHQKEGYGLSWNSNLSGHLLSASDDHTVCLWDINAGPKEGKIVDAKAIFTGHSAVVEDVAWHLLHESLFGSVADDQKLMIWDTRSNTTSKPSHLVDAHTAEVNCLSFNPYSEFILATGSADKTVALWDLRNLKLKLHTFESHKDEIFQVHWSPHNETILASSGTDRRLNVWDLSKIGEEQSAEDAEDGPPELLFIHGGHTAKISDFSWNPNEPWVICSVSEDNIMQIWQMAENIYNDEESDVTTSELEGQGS
- thermal stability z-score (lipoamide; [1]): 0.794
- thermal stability z-score (lipoamide; arsenate co-treatment: none): 0.539
- thermal stability z-score (potassium arsenate): -0.595

Target: RBBP9 (UniProt O75884)
UniProt O75884, sequence (O75884 whole entry, looked up): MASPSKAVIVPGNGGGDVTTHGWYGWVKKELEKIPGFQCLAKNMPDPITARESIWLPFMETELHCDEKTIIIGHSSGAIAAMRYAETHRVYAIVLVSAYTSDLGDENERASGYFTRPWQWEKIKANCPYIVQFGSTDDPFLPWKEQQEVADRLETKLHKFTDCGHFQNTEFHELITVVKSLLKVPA
- thermal stability z-score (lipoamide; [1]): 0.308
- thermal stability z-score (lipoamide; arsenate co-treatment: none): 0.162
- thermal stability z-score (potassium arsenate): 0.167

Target: RBFOX2 (UniProt O43251)
- thermal stability z-score (lipoamide; [1]): -0.112
- thermal stability z-score (lipoamide; arsenate co-treatment: none): 0.314
- thermal stability z-score (potassium arsenate): 0.171

Target: RBKS (UniProt Q9H477)
- thermal stability z-score (lipoamide; [1]): -0.0153
- thermal stability z-score (lipoamide; arsenate co-treatment: none): -0.521
- thermal stability z-score (potassium arsenate): 0.335

Target: RBM3 (UniProt P98179)
- thermal stability z-score (lipoamide; [1]): 0.0805
- thermal stability z-score (lipoamide; arsenate co-treatment: none): -0.138
- thermal stability z-score (potassium arsenate): 0.167

Target: RBM4 (UniProt Q9BWF3)
- thermal stability z-score (lipoamide; [1]): 0.135
- thermal stability z-score (lipoamide; arsenate co-treatment: none): 0.129
- thermal stability z-score (potassium arsenate): 0.216

Target: RBM6 (UniProt P78332)
- thermal stability z-score (lipoamide; [1]): -0.00588
- thermal stability z-score (lipoamide; arsenate co-treatment: none): 0.0644
- thermal stability z-score (potassium arsenate): 0.000188

Target: RBM7 (UniProt Q9Y580)
- thermal stability z-score (lipoamide; [1]): 0.00736
- thermal stability z-score (lipoamide; arsenate co-treatment: none): 0.0818
- thermal stability z-score (potassium arsenate): 0.0182

Target: RBM8A (UniProt Q9Y5S9)
- thermal stability z-score (lipoamide; [1]): -0.156
- thermal stability z-score (lipoamide; arsenate co-treatment: none): 0.28
- thermal stability z-score (potassium arsenate): 0.0981

Target: RBM10
- thermal stability z-score (lipoamide; [1]): 3.5
- thermal stability z-score (lipoamide; arsenate co-treatment: none): 2.13
- thermal stability z-score (potassium arsenate): 1.25

Target: RBM12 (UniProt Q9NTZ6)
UniProt Q9NTZ6, sequence (Q9NTZ6 whole entry): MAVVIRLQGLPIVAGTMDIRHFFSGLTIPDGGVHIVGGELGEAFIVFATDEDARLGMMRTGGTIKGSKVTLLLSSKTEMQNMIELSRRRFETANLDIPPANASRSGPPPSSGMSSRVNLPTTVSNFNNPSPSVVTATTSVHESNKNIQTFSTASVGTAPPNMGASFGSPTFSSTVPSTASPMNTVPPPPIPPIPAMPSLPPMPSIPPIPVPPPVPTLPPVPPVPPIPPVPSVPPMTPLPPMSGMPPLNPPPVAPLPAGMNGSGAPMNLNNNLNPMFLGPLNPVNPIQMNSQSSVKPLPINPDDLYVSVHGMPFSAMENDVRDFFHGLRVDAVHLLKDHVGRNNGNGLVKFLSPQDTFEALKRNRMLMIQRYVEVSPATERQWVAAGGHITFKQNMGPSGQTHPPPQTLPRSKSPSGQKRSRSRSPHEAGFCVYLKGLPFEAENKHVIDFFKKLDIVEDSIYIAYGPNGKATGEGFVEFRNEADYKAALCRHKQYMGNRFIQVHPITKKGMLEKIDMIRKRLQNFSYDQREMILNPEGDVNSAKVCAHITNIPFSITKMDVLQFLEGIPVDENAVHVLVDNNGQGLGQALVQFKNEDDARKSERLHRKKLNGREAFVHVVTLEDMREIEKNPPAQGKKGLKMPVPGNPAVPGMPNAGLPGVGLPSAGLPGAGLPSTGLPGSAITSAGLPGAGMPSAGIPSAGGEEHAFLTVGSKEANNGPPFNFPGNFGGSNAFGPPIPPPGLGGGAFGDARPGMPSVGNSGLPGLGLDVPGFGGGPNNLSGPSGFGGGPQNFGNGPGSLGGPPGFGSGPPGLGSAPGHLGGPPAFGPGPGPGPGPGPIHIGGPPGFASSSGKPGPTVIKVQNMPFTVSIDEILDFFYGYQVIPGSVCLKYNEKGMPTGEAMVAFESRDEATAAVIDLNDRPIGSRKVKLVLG
- thermal stability z-score (lipoamide; [1]): -0.205
- thermal stability z-score (lipoamide; arsenate co-treatment: none): -0.19
- thermal stability z-score (potassium arsenate): -0.506

Target: RBM14 (UniProt Q96PK6)
UniProt Q96PK6, sequence (Q96PK6 whole entry): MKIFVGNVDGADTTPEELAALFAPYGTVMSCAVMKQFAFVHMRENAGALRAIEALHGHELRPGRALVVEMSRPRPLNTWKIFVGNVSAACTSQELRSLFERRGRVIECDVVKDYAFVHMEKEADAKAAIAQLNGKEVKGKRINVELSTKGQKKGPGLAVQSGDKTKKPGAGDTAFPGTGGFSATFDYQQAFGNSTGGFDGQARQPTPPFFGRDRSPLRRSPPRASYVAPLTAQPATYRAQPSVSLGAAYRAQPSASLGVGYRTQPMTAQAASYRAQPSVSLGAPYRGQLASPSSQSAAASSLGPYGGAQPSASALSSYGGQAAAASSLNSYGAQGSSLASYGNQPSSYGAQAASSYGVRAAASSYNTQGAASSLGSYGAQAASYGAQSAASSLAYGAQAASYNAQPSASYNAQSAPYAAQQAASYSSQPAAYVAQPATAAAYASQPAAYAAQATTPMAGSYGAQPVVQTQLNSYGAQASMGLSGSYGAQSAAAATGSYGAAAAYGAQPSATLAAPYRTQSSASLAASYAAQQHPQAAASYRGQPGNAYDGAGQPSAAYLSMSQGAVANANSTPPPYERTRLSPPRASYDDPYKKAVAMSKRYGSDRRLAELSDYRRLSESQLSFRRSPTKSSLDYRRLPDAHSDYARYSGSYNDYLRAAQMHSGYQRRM
- thermal stability z-score (lipoamide; [1]): -0.169
- thermal stability z-score (lipoamide; arsenate co-treatment: none): -0.0944
- thermal stability z-score (potassium arsenate): -0.803

Target: RBM15 (UniProt Q96T37)
- thermal stability z-score (lipoamide; [1]): -0.454
- thermal stability z-score (lipoamide; arsenate co-treatment: none): -0.0697
- thermal stability z-score (potassium arsenate): -0.321

Target: RBM17 (UniProt Q96I25)
- thermal stability z-score (lipoamide; [1]): 0.528
- thermal stability z-score (lipoamide; arsenate co-treatment: none): 0.441
- thermal stability z-score (potassium arsenate): 0.243

Target: RBM19 (UniProt Q9Y4C8)
- thermal stability z-score (lipoamide; [1]): 0.0627
- thermal stability z-score (lipoamide; arsenate co-treatment: none): 0.309
- thermal stability z-score (potassium arsenate): 0.649

Target: RBM22 (UniProt Q9NW64)
- thermal stability z-score (lipoamide; [1]): -0.0944
- thermal stability z-score (lipoamide; arsenate co-treatment: none): 0.0307
- thermal stability z-score (potassium arsenate): -1.96

Target: RBM25 (UniProt P49756)
- thermal stability z-score (lipoamide; [1]): -0.0516
- thermal stability z-score (lipoamide; arsenate co-treatment: none): 0.34
- thermal stability z-score (potassium arsenate): -0.454

Target: RBM26 (UniProt Q5T8P6)
- thermal stability z-score (lipoamide; [1]): -0.0221
- thermal stability z-score (lipoamide; arsenate co-treatment: none): 0.172
- thermal stability z-score (potassium arsenate): -0.536

Target: RBM27 (UniProt Q9P2N5)
- thermal stability z-score (lipoamide; [1]): -0.453
- thermal stability z-score (lipoamide; arsenate co-treatment: none): -0.373
- thermal stability z-score (potassium arsenate): -0.145

Target: RBM28 (UniProt Q9NW13)
UniProt Q9NW13, sequence (Q9NW13 whole entry): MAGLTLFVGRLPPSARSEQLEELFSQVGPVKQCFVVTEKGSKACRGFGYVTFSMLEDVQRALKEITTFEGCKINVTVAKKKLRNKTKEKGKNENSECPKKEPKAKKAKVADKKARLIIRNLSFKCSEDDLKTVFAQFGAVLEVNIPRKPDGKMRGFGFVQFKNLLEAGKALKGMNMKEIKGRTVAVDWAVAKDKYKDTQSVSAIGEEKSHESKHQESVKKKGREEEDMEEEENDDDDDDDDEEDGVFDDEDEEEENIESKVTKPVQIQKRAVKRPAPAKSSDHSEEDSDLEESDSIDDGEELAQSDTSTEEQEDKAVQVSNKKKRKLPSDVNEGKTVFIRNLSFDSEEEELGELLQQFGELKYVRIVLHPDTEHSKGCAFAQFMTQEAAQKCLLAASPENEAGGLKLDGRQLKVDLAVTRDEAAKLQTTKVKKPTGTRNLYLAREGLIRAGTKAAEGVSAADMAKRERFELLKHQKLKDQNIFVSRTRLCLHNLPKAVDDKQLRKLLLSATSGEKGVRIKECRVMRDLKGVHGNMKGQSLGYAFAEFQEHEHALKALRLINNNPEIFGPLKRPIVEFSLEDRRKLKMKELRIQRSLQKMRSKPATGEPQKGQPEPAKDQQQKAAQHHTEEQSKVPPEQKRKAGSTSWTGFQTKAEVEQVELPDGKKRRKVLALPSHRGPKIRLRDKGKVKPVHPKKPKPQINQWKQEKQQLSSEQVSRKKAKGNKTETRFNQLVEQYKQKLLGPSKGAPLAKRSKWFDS
- thermal stability z-score (lipoamide; [1]): -0.0361
- thermal stability z-score (lipoamide; arsenate co-treatment: none): -0.0267
- thermal stability z-score (potassium arsenate): -0.81

Target: RBM33 (UniProt Q96EV2)
- thermal stability z-score (lipoamide; [1]): 0.0301
- thermal stability z-score (lipoamide; arsenate co-treatment: none): -0.534
- thermal stability z-score (potassium arsenate): -0.175

Target: RBM34 (UniProt P42696)
- thermal stability z-score (lipoamide; [1]): 0.0729
- thermal stability z-score (lipoamide; arsenate co-treatment: none): -0.0422
- thermal stability z-score (potassium arsenate): -0.201

Target: RBM39 (UniProt Q14498)
- thermal stability z-score (lipoamide; [1]): -0.398
- thermal stability z-score (lipoamide; arsenate co-treatment: none): 0.0967
- thermal stability z-score (potassium arsenate): -0.546
